Legend:
[1] = Compound induced cellular toxicity in HepG2 cells (ATPlite 1 Step); assay type: cell-based; conditions: human, three days, 50% reduction of total ATP levels vs no drug controls
Protocol: At day 3, post seeding cells are treated with ATPlite 1 Step according to the manufacturer's instructions.

HBV (2.2.15 cells) = experiment: Antiviral activity in 2.2.15 cells: reduction of viral product accumulation (qPCR of lysates, HBsAg or HBeAg ELISA); assay type: cell-based, hepatitis B virus (HBV); conditions: Hepatitis B virus, 120 h, day 5 post treatment, 50% reduction of viral product accumulation in lysates or supernatants vs no drug controls, readout (qPCR, HBsAg, HBeAg) not specified
Procedure, shortened: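 HBV-producing 2.2.15 cells, 35,000/well, treated with 5-fold serial compound dilutions at 0.5% final DMSO for 5 days. Lysate HBV DNA by qPCR or supernatant HBsAg/HBeAg by ELISA; EC50 is 50% reduction versus no-drug control, binned A<0.1 μM, B 0.1-1 μM, C>1 μM.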

Row | SMILES | CC50 at 3 days [1] [µM] | EC50 (HBV (2.2.15 cells)) [µM]
1 | CC(C)(C)[C@@H]1Cc2c(cc(-c3cccs3)c3c2CCO3)-c2cc(=O)c(C(=O)O)cn21 [Example 86, (S)-5-(tert-butyl)-9-oxo-12-(thiophen-2-yl)-2,3,4,9-tetrahydro-5H-furo[3,2-f]pyrido[2,1-a]isoquinoline-8-carboxylic Acid] | < 10 | < 0.1
2 | CC(C)[C@@H]1Cc2c(cc(-c3ccsc3)c3c2CCO3)-c2cc(=O)c(C(=O)O)cn21 [Example 100, (S)-5-isopropyl-9-oxo-12-(thiophen-3-yl)-2,3,4,9-tetrahydro-5H-furo[3,2-f]pyrido[2,1-a]isoquinoline-8-carboxylic Acid] | < 10 | < 0.1
3 | C[C@H]1Cc2c3c(cc(-c4ccoc4)c2O1)-c1cc(=O)c(C(=O)O)cn1[C@H](C(C)(C)C)C3 [Example 132, (2S,5S)-5-(tert-butyl)-12-(furan-3-yl)-2-methyl-9-oxo-2,3,4,9-tetrahydro-5H-furo[3,2-f]pyrido[2,1-a]isoquinoline-8-carboxylic Acid] | < 10 | < 0.1

From patent US11058678B2 (Enanta Pharmaceuticals, Inc., priority 2018, dated 2021)
